ChEMBL document CHEMBL1201862, “PubChem BioAssay data set” (2004)
The source made the active and inactive calls.

Assays:
[1] = Luminescence Cell-Based Dose Retest to Confirm Inhibitors of Cancer Stem Cells. [Related pubchem assays (depositor defined):AID2717, AID2721]; type: functional; details: Homo sapiens
Protein skinhead-1 = biological target: T1, Protein skinhead-1 (Caenorhabditis elegans, UniProt P34707); type: functional
T1 sequence (P34707 whole entry): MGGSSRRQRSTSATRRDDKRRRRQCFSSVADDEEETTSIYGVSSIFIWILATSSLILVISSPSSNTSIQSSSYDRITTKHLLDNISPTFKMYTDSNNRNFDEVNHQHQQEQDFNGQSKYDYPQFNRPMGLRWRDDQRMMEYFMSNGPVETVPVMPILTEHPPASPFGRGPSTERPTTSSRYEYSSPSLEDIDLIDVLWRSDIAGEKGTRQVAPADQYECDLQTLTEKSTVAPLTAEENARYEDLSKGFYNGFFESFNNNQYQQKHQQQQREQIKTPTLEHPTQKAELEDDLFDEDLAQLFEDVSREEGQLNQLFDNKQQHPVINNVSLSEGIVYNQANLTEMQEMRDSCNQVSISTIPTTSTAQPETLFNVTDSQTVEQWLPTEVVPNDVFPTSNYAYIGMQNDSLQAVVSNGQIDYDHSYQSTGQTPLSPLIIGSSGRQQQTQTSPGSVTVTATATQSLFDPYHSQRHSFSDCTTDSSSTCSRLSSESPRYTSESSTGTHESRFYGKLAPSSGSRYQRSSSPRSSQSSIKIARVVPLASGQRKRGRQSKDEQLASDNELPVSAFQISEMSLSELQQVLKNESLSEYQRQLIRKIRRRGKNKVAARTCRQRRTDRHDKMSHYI

[2] = biological target: T2, Heat shock factor protein 1 (Mus musculus, UniProt P38532); assay: HSF1 potentiators in luciferase reporter cells, confirmation, cell-based, NIH3T3, luminescence, dose retest (AID 435004); type: functional;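 further: stress induced by proteasome inhibitor MG132 added 30 min after compound; luciferase reporter driven by HSF1 response element in NIH3T3 cells; actives raise luminescence as potentiators of the MG132 stress response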
T2 sequence (P38532 whole entry): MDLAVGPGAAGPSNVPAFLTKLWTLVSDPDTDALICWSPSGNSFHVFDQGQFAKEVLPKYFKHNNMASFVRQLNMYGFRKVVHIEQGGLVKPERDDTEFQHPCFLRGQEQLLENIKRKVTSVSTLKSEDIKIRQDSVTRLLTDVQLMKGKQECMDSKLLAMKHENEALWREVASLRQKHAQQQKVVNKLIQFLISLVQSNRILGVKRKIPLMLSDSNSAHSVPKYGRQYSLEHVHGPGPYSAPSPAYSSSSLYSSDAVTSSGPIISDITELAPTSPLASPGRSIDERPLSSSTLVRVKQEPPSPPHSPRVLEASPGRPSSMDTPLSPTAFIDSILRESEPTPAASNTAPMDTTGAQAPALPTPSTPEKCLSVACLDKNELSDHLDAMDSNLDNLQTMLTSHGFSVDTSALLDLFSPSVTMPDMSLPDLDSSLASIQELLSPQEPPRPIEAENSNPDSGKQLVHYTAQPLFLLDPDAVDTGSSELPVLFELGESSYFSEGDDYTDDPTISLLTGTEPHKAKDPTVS

Paired box protein Pax-8 = Paired box protein Pax-8 (Homo sapiens, UniProt Q06710); assay: inhibitors of PAX8-driven TPO luciferase reporter, dose response, RMG-I cells, cherry-pick (AID 687027); type: functional, cell-based;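 further: luciferase reporter driven by Pax8 target thyroperoxidase promoter measured by SteadyGlo luminescence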
Chain of Paired box protein Pax-8 (Q06710 whole entry): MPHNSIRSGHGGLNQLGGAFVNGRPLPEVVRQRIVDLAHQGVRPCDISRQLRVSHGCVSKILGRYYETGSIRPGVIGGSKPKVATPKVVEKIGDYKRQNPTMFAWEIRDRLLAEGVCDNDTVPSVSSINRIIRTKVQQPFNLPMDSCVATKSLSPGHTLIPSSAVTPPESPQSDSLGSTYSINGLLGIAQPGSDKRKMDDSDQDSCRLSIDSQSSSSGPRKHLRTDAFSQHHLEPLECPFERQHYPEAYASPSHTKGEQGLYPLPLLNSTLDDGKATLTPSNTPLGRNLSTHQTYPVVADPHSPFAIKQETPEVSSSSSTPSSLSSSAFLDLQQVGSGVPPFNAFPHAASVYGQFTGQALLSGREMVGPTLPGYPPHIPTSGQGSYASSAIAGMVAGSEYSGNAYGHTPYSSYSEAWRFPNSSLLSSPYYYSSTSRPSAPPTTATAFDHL

Cytochrome P450 2D6 = Cytochrome P450 2D6 (Homo sapiens, UniProt P10635);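 further: CYP2D6 member of a cytochrome P450 panel assay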
Chain of Cytochrome P450 2D6 (P10635 whole entry): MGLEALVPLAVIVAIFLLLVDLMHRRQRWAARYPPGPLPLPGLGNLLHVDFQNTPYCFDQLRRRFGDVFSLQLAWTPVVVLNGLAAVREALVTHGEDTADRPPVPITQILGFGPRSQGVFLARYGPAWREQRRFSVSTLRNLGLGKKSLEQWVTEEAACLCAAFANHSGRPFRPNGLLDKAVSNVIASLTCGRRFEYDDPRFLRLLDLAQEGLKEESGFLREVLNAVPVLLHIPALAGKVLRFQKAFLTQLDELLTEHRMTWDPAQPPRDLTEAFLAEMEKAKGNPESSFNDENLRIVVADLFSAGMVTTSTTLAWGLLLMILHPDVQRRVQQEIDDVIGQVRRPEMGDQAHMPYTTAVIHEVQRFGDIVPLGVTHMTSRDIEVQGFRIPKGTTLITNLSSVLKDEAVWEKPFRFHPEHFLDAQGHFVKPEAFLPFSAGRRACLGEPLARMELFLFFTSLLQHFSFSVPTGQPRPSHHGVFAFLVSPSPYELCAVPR

[3] = Luminescence Cell-Based Dose Confirmation HTS to Identify Activators of 5'UTR Stem-Loop Driven Alpha-Synuclein mRNA Translation in H4 Neuroglioblastoma Cells. [Related pubchem assays: 1829 (Project Summary), 1814 (Primary HTS)]; type: functional
[4] = Luminescence Cell-Based Dose Response HTS to Identify Activators of Luciferase Translation or Activity in H4 […] Cells. [Related pubchem assays: 1829 (Project Summary), 1814 (Primary HTS)]; type: functional
H4 = assay: Luminescence Cell-Based Dose Response HTS to Identify Activators of 5'UTR Stem-Loop Driven Prion Protein mRNA Translation in H4 Neuroglioblastoma Cells. [Related pubchem assays: 1829 (Project Summary), 1814 (Primary HTS)]; type: functional; details: Homo sapiens
[5] = HEp-2 cell cytotoxicity, dose response, cytotoxicity control for RSV inhibitor project, HTS (AID 2410); type: functional; details: human respiratory syncytial virus
[6] = biological target: T2, Heat shock factor protein 1; assay: inhibition of MG132-induced HSE-luciferase signal, confirmation, cell-based, NIH3T3, luminescence, dose retest (AID 2382); type: functional;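 further: NIH3T3 fibroblasts with HSF1-driven luciferase reporter stressed by proteasome inhibitor MG132; luminescence from HSF1-driven luciferase expression after 8 hours of MG132 stress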

With O=C(Nc1cccc(-c2csc(Nc3ccccc3)n2)c1)c1ccccc1 the AC50 [1] was 2.96 µM (active) and the IC50 (Protein skinhead-1) was > 100 µM (inactive).
In the case of COc1ccccc1NC(=O)CSc1nnc(-c2ccncc2)o1, the IC50 (Protein skinhead-1) is reported as > 100 µM (inactive).
For Cn1c(S)nnc1Cc1c[nH]c2ccccc12, the IC50 (Protein skinhead-1) was > 100 µM (inactive).
In the case of CCCC12CN3CC(C)(CN(C1)C3c1ccc3c(c1)OCO3)C2=O (stereo not given), the EC50 [2] is reported as > 260 µM (inactive).
For CCN(CC)S(=O)(=O)c1cc([N+](=O)[O-])ccc1NNC(=O)Nc1ccccc1OC, the EC50 [2] was > 260 µM (inactive).
In the case of Cc1ccc(NN/C=C2\C(=O)NC(=O)N(c3ccccc3)C2=O)cc1, the AC50 [1] is reported as 2.35 µM (active).
In the case of Cc1ccc(F)c(C2C3C=CCC(c4cccc(-c5ccc(N(C)C)cc5)c4)C3C(=O)N2Cc2ccccc2)c1 (stereo not given), the IC50 (Protein skinhead-1) is reported as > 100 µM (inactive).
In the case of CC(NC(=O)c1cc(COc2ccccc2)on1)c1nccs1 (stereo not given), the IC50 (Protein skinhead-1) is reported as > 100 µM (inactive).
For O=S(=O)(NC1CCCCC1N1CCN(c2ccccc2F)CC1)c1ccccc1 (stereo not given), the AC50 (Paired box protein Pax-8) was 23.1 µM (active).
In the case of NCCSc1nc2ccccc2s1, the AC50 (Cytochrome P450 2D6) is reported as 3.98 µM (inconclusive).
In the case of CC1(C)CC(=O)C(C2C3=C(CC(C)(C)CC3=O)OC3=C2C(=O)CC(C)(C)C3)=C(O)C1, the EC50 [2] is reported as > 260 µM (inactive).
In the case of COC(=O)C1=C(c2ccc(F)cc2OCc2ccccc2)C[C@@H]2CC[C@H]1N2C(=O)NCc1ccc2[nH]ccc2c1, the AC50 (Paired box protein Pax-8) is reported as 18.2 µM (active).
In the case of c1ccc(N2OCC3Cn4c(nc5ccccc54)C32)cc1 (stereo not given), the EC50 [3] is reported as 30.3 µM (active), the EC50 [4] is reported as 8.69 µM (active) and the EC50 (H4) is reported as 44.2 µM (active).
For C=CCSc1n[nH]c(-c2ccccc2)n1, the EC50 [3] was 9.22 µM (active), the EC50 [4] was 8.06 µM (active) and the EC50 (H4) was 75.3 µM (active).
For O=C1CN(c2nc(-c3cccs3)nc3sc4c(c23)CCCC4)CCN1, the CC50 [5] was > 50 µM (active), the EC50 [3] was 9.49 µM (active) and the EC50 [4] was 15.2 µM (active). The EC50 (H4) was 21 µM (active).
For Cc1cc(NC(=O)COc2cccc(Oc3ccccc3)c2)no1, the EC50 [3] was > 120 µM (not active), the EC50 [4] was > 120 µM (not active) and the EC50 (H4) was > 120 µM (not active).
With O=C(/C=C\Nc1ccc(Br)cc1)c1cccnc1 the IC50 (Protein skinhead-1) was 71.4 µM (inactive).
In the case of Oc1c2c(nc3cc(-c4cccc(F)c4)nn13)CCC2, the EC50 [2] is reported as > 260 µM (inactive).
With CN(C)c1nc(N)nc(CSc2nnnn2-c2ccc(F)cc2)n1 the EC50 [2] was > 260 µM (inactive).
In the case of O=C1c2ccccc2CCc2ccc(Br)cc21, the IC50 (Protein skinhead-1) is reported as 35.6 µM (active).
For FC(F)(F)c1ccc(-c2noc(CN3CCCN(C4CCCCC4)CC3)n2)cc1, the AC50 [1] was 1.79 µM (active).
In the case of O=S(=O)(Nc1ccc2c(c1)OCCO2)c1cccs1, the EC50 [3] is reported as 14.8 µM (active), the EC50 [4] is reported as 10.9 µM (active) and the EC50 (H4) is reported as 10.8 µM (active). For the same compound, the EC50 [6] was 2.91 µM (active).
With Cc1ccc(-c2noc(CCC(=O)Nc3cc(C)ccn3)n2)cc1 the EC50 [2] was > 260 µM (inactive).
In the case of Oc1ccc(C2C(c3ccccc3)=NN=C(c3ccccc3F)N2O)c(O)c1 (stereo not given), the EC50 [3] is reported as 95.8 µM (active), the EC50 [4] is reported as 72.3 µM (active) and the EC50 (H4) is reported as > 120 µM (not active).
For O=C(Nc1nc(-c2cccc3ccccc23)cs1)c1ccc2c(c1)S(=O)(=O)c1ccccc1C2=O, the AC50 [1] was 3.99 µM (active).
For COc1ccc(NC(=O)CSc2n[nH]c(N)n2)cc1OC, the EC50 [3] was > 120 µM (not active), the EC50 [4] was > 120 µM (not active) and the EC50 (H4) was > 120 µM (not active).
In the case of COc1cc(C2C3=C(COC3=O)Oc3cc4c(cc32)OCO4)cc(OC)c1O (stereo not given), the AC50 (Paired box protein Pax-8) is reported as 1.74 µM (active).
In the case of COC(=O)c1ccc(CC2(C)C(=O)Nc3ccc(-c4cccc(C(F)(F)F)c4)cc32)o1 (stereo not given), the IC50 (Protein skinhead-1) is reported as 79.3 µM (inactive).
In the case of C/C(=C\C(=O)c1ccc(Br)cc1)NCc1ccccc1, the EC50 [3] is reported as > 120 µM (not active), the EC50 [4] is reported as 9.58 µM (active) and the EC50 (H4) is reported as 90.3 µM (active).
With C/C(=N\NC(=O)c1ccoc1C)c1cccc2ccccc12 the EC50 [2] was > 260 µM (inactive).
For CC1(C(=O)NS(=O)(=O)c2cccs2)CCN1C(=O)Cc1ccc(-c2ccccc2)cc1 (stereo not given), the IC50 (Protein skinhead-1) was > 100 µM (inactive).
